The values that follow come from patent US11622964B2, “Method for destroying cellular mechanical homeostasis and promoting regeneration and repair of tissues and organs, and use thereof” (INSTITUTE OF ZOOLOGY, CHINESE ACADEMY OF SCIENCES, priority 2018, dated 2023).

The subject of data set [1] is mouse embryonic fibroblasts (MEFs). Briefly: TGF-β1-induced transformation of mouse embryonic fibroblasts into myofibroblasts. It counts as cell-based. The following applies: S-Bleb-OB 20 μM; for stretched state / fibrous morphology of MEFs: compared with DMSO; for TGF-β1-induced myofibroblast activation: scheme as Example 9-1. The text has this:
In this example, cell models for in vitro fibrosis are respectively built to activate mouse hepatic stellate Cells (mHSCs, FIG. 13(B)), mouse embryonic fibroblasts (MEFs FIG. 13(C)), mouse adult liver, lung, and heart-derived primary mesenchymal cells (priMCs, FIG. 13(D)), and human hepatic stellate cells (hLX-2, FIG. 13(E)) into myofibroblasts through the induction of TGF-β1. The specific experimental procedure is as shown in FIG. 9A: a medium containing 10% serum is used for the initial cell culture; after 24 hours the medium is replaced with low serum medium (or pre-starvation treatment for 16 hours) while adding 3 ng/ml TGF-β1 with DMSO or Bleb (20 μM); after 7 days the expression of myofibroblast activation marker protein (Acta2), collagen (Col1a1, Col1a2, Col3a1, and Col1a2), and matrix metalloproteinases and inhibitors (collagenases: MmP8, and MmP13; gelatinases: MmP2, and MmP9; a metalloproteinase inhibitor: Timp1/2/3) are identified.

Data set [2] has as its system adult hepatocytes. Description: In vitro amplification of adult hepatocytes. The data set is classed as cell-based, human. The settings on record: for number of cells: after 6 days of culture. The protocol:
Resuscitation and Culture of Adult Hepatocytes: adult hepatocytes ([…] […] human, Bioreclamation IVT) are taken out from the liquid nitrogen tank, quickly placing in a 37° C. water bath, after melting the cells are added to 5 ml of 37° C. pre-warmed hepatocyte inoculation medium (In VitroGRO CP Medium), then inoculating at 9×10^4/well in 24-well plate after counting, 2-4 hours after hepatocyte adherence, the hepatocyte inoculation medium is sucked and discarded, then respectively adding control medium for hepatocyte culture, 10 μm small molecule medium, and 20 μm small molecule medium; changing the medium every 2 days. The number of cells is estimated from the photograph on day 2. After 4 days, the 20 μm small molecule medium group is changed to culture the cells in 10 μm small molecule medium. After co-culturing for 6 days the cells are counted. A portion of the cells are taken for RNA extraction so as to detect the expression of human hepatocyte-specific genes. Passage of Adult Hepatocytes: 4.7×10^4 hepatocytes cultured in the above control group, and 8×10^4 hepatocytes cultured in 10 μm small molecule medium are respectively re-inoculated into 24-well plate coated with rat tail collagen, changing the medium every two days and culturing for 6 days, photographs are taken to record the growth of the cells. Induction of CYP1A2 in Adult Hepatocytes Amplified by Small Molecule Medium: 3×10^5 hepatocytes are inoculated in 24-well plate coated with rat tail collagen, after culturing in 10 μm small molecule medium for 24 hours, the medium is replaced with 10 μm small molecule medium containing 50 μm omeprazole, and in the control group the cells are cultured in 10 μm small molecule medium containing DMSO; 48 hours later, the cells are collected to detect the expression of the CYP1A2 gene.

With `Cc1ccc2c(c1)C(=O)[C@@]1(O)CCN(c3ccccc3)C1=N2` [R-Bleb, (R)-(+)-blebbistatin], in data set [1], the “stretched state / fibrous morphology of MEFs” value is on record as “does not affect the fibrous morphology” and the TGF-β1-induced myofibroblast activation result is “no inhibitory effect”.

Turning to `Cc1ccc2c(c1)C(=O)[C@]1(OC(=O)c3ccccc3)CCN(c3ccccc3)C1=N2` [S-Bleb-OB, (−)-blebbistatin o-benzoate], in data set [1], the “stretched state / fibrous morphology of MEFs” value is “may destroy the stretched state” and the TGF-β1-induced myofibroblast activation entry was “capable of inhibiting”.

Regarding `COc1ccc2[nH]c([S+]([O-])Cc3ncc(C)c(OC)c3C)nc2c1` (stereo not drawn) [omeprazole], in data set [2] (50 μm omeprazole, 48 hours, subcultured adult hepatocytes in 10 μm small molecule medium), the “expression of CYP1A2 gene after induction” value is “increase”.

Take (−)-blebbistatin: in data set [2], the “amplification effect on adult hepatocytes (cell number day 6 / day 2)” value was “significant amplification effect”; the “expression of human hepatocyte specific genes ALBUMIN, AFP, CYP1A2, CYP3A4” value is “still express”; the “subculture of human hepatocytes” value is given as “can subculture human hepatocytes”. Further, the number of cells in data set [2] (10 μm group) is recorded as 6.47×10^4 (SD=1.24). For the same molecule, the number of cells in data set [2] (# group (20 μm for 4 days, then 10 μm for 2 days)) is on record as 9.47×10^4 (SD=0.98). Also, the “expression of proliferating cell nuclear antigen (PCNA) gene” value in data set [2] (vs control group) was “significantly higher”.

As for (−)-blebbistatin o-benzoate [S-Bleb-OB], the TGF-β1-induced myofibroblast activation result in data set [1] was “have an inhibitory effect”.
